Reference: patent publication US20050277586A1, “Peptide chemically modified with polyethylene glycol” (priority 2002, published 2005)

Key:
[1] = Affinity for phosphatidyl serine by surface plasmon resonance (Biacore 2000); type: binding; conditions: in the presence of 0.1 mg/mL BSA
Procedure: The specific affinity of the peptide for phosphatidyl serine was evaluated by means of surface plasmon resonance (SPR) using Biacore 2000 (manufactured by Biacore). To be more specific, phosphatidyl choline was immobilized on flow cell 1, and 50% of phosphatidyl serine and 50% of phosphatidyl choline were immobilized on flow cell 2 of HPA chip (manufactured by Biacore), and ability of the peptide to bind to the phospholipid was evaluated in the presence of 0.1 mg/mL BSA to thereby evaluate the affinity.

[2] = system: plasmid (pUC119); experiment: Binding ability to plasmid (agarose gel electrophoresis); conditions: charge ratio (±ratio) of 3
Procedure: The plasmid prepared by the procedure described in Example 7 (pUC119; final concentration, 20 μg/mL) and the peptides prepared by the procedure described in Examples 1 to 3 were mixed in 20 mM Tris HCl buffer (pH=7.2) containing 150 mM NaCl at a charge ratio (±ratio) of 0 to 3, and the mixture was allowed to stand at 37° C. for 30 minutes. Electrophoresis was then conducted on 1% agarose gel to thereby determine the binding of the plasmid and the peptide.
The ±ratio (charge ratio) indicated in FIG. 11 is the ratio of the number (+) of the positively-charged groups in the peptide to the number (−) of negatively-charged groups in the plasmid. As evident in FIG. 11, the amount of plasmid that became bound to the peptide increased with the increase in the charge ratio (±ratio), and the plasmid was fully bound to the peptide at a charge ratio (±ratio) of 3. The peptides of SEQ ID NO: 2 to SEQ ID NO: 24 were also found to bind at a charge ratio (±ratio) of 3.

[3] = system: Vero cell, T24 cell, A549 cell; experiment: Nucleic acid-introducing ability, luciferase-expressing plasmid (procedure of Example 9); type: cell-based
Description: A cell line established from monkey kidney (Vero cell) and a human bladder cancer cell (T24 cell) purchased from American Type Culture Collection (ATCC) and human lung cancer cell (A549 cell) purchased from Dainippon Pharmaceutical were inoculated on a 24 well culture plate (manufactured by NALGEN NUNC) at 1×10^5 cells/well. Vero cell and A549 cell were cultivated in DMEM (manufactured by Life Technologies Oriental) supplemented with 10% fetal bovine serum (hereinafter referred to as FBS, manufactured by NICHIREI), and T24 cell was cultivated in McCoy's 5a (manufactured by Life Technologies Oriental) supplemented with 10% FBS in 5% CO2 atmosphere at 37° C. for 24 hours. After removing the medium, opti-MEM (manufactured by Life Technologies Oriental) prepared to have the concentration of the luciferase-expressing plasmid prepared in Example 7 of 1 μg/mL and the concentration of the peptide prepared in Example 1 of 1.25, 2.5, or 5 μM was added, and the cells were cultivated for 5 hours. Next, in the case of Vero cell and A549 cell, the culture medium was replaced with DMEM supplemented with 10% FBS, and in the case of T24 cell, the medium was replaced with McCoy's 5a supplemented with 10% FBS, and cultivation was continued in 5% CO2 atmosphere and at 37° C. for another 24 hours. The luciferase activity expressed in the cell was then measured by the method instructed in luciferase assay system (manufactured by Promega). To be more specific, the cells were washed with phosphate-buffered saline (hereinafter referred to as PBS, manufactured by SIGMA), and the cells were lyzed with Passive Lysis Buffer attached to the kit.
20 μL of this cell lysate and 100 μL of the Luciferase Assay Reagent II attached to the kit was added to a fluorescence-measuring plate (Microlite™ 1 plate, manufactured by Dynatech), and after mixing, fluorescence was measured for 1 second by using a multilabel counter (ARVO™ SY1420 MULTILABEL COUNTER, manufactured by Wallac Beltold.
Concentration of the protein in the cell lysate was measured by mixing 8 μL of the cell lysate and 200 μL of the protein assay solution (manufactured by Biorad) with 792 μL of ultrapure water in a disposable cuvette (UV fluorescent cuvette A204X, manufactured by Funakoshi), allowing the mixture to stand for 5 minutes at room temperature, and measuring the absorption at 595 nm with a spectrophotometer (DU640, manufactured by Beckman). Bovine serum albumin (BSA) was used for the standard protein. By using the thus obtained results, count per 1 second per 1 mg of protein of the cell lysate was calculated to thereby use the count as the luciferase activity, and the highest count in the three conditions of different peptide concentration was designated the gene-introducing ability of the peptide.

[4] = system: T24 cell; experiment: Luciferase-expressing plasmid introduction into T24 cell; type: cell-based, human
Description: A cell line established from monkey kidney (Vero cell) and a human bladder cancer cell (T24 cell) purchased from American Type Culture Collection (ATCC) and human lung cancer cell (A549 cell) purchased from Dainippon Pharmaceutical were inoculated on a 24 well culture plate (manufactured by NALGEN NUNC) at 1×10^5 cells/well. Vero cell and A549 cell were cultivated in DMEM (manufactured by Life Technologies Oriental) supplemented with 10% fetal bovine serum (hereinafter referred to as FBS, manufactured by NICHIREI), and T24 cell was cultivated in McCoy's 5a (manufactured by Life Technologies Oriental) supplemented with 10% FBS in 5% CO2 atmosphere at 37° C. for 24 hours. […] The luciferase activity expressed in the cell was then measured by the method instructed in luciferase assay system (manufactured by Promega). […]
20 μL of this cell lysate and 100 μL of the Luciferase Assay Reagent II attached to the kit was added to a fluorescence-measuring plate (Microlite™ 1 plate, manufactured by Dynatech), and after mixing, fluorescence was measured for 1 second by using a multilabel counter (ARVO™ SY1420 MULTILABEL COUNTER, manufactured by Wallac Beltold. […]

[5] = system: Vero cell; experiment: Accumulation of FITC-labeled oligonucleotide in cell nucleus; type: cell-based, monkey; conditions: 300 nM FITC-labeled oligonucleotide, 2.5 μM peptide
Procedure: Vero cell was inoculated in the well of a chamber slide (Lab-Tek II chamber slide, size 4 well, manufactured by NALGEN NUNC) at a rate of 1×10^5 cells/well, and the cells were cultivated in DMEM supplemented with 10% FBS in 5% CO2 atmosphere at 37° C. for 24 hours. After removing the medium, opti-MEM containing 300 nM FITC-labeled oligonucleotide prepared in Example 6 and 2.5 μM of the peptide of SEQ ID NO: 1 prepared in Example 1 was added, and the cultivation was continued for 4 hours. The medium was replaced with DMEM supplemented with 10% FBS, and the cultivation was continued in 5% CO2 atmosphere at 37° C. for another 24 hours. After washing the cell with PBS, the cells were fixed by using PBS containing 4% paraformaldehyde, and accumulation of FITC-labeled oligonucleotide in the cell nucleus was confirmed by using a fluorescence microscope (AH-3, manufactured by Olympus). […] On the other hand, accumulation of FITC-labeled oligonucleotide in the cell was not confirmed in the absence of the peptide of SEQ ID NO: 1.

Sequence: TRYLRIHPRSWVHQIALRLRYLRIHPRSWVHQIALRS [SEQ ID NO: 1]
- Binding to flow cell 2 (50% phosphatidyl serine, 50% phosphatidyl choline) and flow cell 1 (phosphatidyl choline) [1]: stronger
- Binding of plasmid to the peptide [2]: fully bound
- Nucleic acid-introducing ability ([3]; luciferase plasmid 1 μg/mL, highest count of peptide 1.25, 2.5 or 5 μM, cell line not stated): 3+ (1,000,000 to less than 10,000,000)
- Ability of introducing the nucleic acid into a cell ([3]; procedure of Example 9): found to have the ability of introducing the nucleic acid into a cell
- Luciferase activity [4]: 7.8 × 10^3 cps/mg protein
- Accumulation of FITC-labeled oligonucleotide in the cell nucleus [5]: FITC-labeled oligonucleotide was accumulated in the cell nucleus
